{"source": "patent US9566334B2", "about": "“Combinations of a PI3K/AKT inhibitor compound with an HER3/EGFR inhibitor compound and use thereof in the treatment of a hyperproliferative disorder” (THE GENERAL HOSPITAL CORPORATION, priority 2012, dated 2017)", "key": {"TNBC patients": {"tested_on": "TNBC patients", "experiment": "Neoadjuvant trial of panitumumab with standard chemotherapy (pCR, EGFR and HER3 IHC)", "assay_type": "in vivo, human", "description": "Patient samples: Tumor tissue was fixed in 10%-buffered formalin for 48 h and further embedded in paraffin. Four-micron sections were deparaffinized in xylene and hydrated in graded alcohols. For EGFR detection, the antigen was retrieved by protease treatment (8 min at 37° C.) and the sections further incubated at 37° C. for 1 h with pre-diluted, ready-to-use mouse monoclonal anti-EGFR (clone 3C6, Ventana, Tucson, Ariz.). The antigen-antibody reaction was visualized by UltraView DAB reveal system in a Benchmark XT automated IHC stainer (all from Ventana). For HER3, the antigen retrieval was performed by heating the sections at 97° C. for 20 min in EnVision® Target Retrieval Solution High pH (Dako) in PT-Link apparatus (Dako). The tissues were then incubated at 37° C. for 2 h with mouse monoclonal anti-HER3 (clone DAK-H3-IC, Dako, Glostrup, Denmak) diluted at 1:50. […] For each patient the pre-treatment and the post-treatment tumor sample were run together. IHC staining was interpreted by an expert pathologist who was blind to patient information. Both EGFR and HER3 expressions were quantified using an arbitrary scale having 0, 0.5, 1, 1.5, 2, 2.5 and 3 as measures of increasing staining intensity. EGFR and HER3 histoscores were defined as a sum of products obtained by multiplying the staining intensity with the percentage of stained cells.\nFFPE specimens for IHC analyses of EGFR and HER3 expression were obtained from the institutions participating in two French multicenter pilot phase II neoadjuvant trials which tested the efficacy of an anti-EGFR antibody combined to chemotherapy in TNBC stage II-IIIA pts. One trial regimen consisted of 8 cycles, administered each 3 weeks. First 4 cycles contained 9 mg/kg of panitumumab combined with 500 mg/m2 of each 5-fluorouracil and cyclophosphamide plus 100 mg/m2 of epirubicin. Last 4 cycles had panitumumab with 100 mg/m2 docetaxel instead of 3 cytotoxics previously mentioned. […] All patients underwent surgery at completion of treatment. Pathologic complete response (pCR) was the primary endpoint with clinical response and toxicity as secondary endpoints. […] Tumor tissue samples were systematically collected before and at the end of the neoadjuvant treatment and collection was centralized at the Jean Perrin Comprehensive Cancer Center where molecular and pathological analyses were performed. pCR was evaluated using Chevallier's (Chevallier et al., American Journal of Clinical Oncology 16, 223 (1993)) and Sataloff's (Sataloff et al., Journal of the American College of Surgeons 180, 297 (1995)) classifications."}, "[1]": {"tested_on": "MDA-MB-468- and HCC70-derived xenografts", "experiment": "Cell line-derived xenograft tumor growth", "assay_type": "in vivo, mice", "details": "MDA-MB-468 and HCC70 xenografts; p less than 0.01 combination vs monotherapy", "description": "To expand these findings in vivo, the efficacy of MEHD7945A was tested in combination with either the Akt or PI3K inhibitor in both MDA-MB-468- and HCC70-derived xenografts.\n(§1) For cell line-derived xenograft studies, mice were injected subcutaneously with 1×10^7 HCC70 or MDA-MB-468 suspended in 150 μL culture media/Matrigel (BD Biosciences) in a 4:1 ratio. One μmol/L of 17β-estradiol was supplemented in the mouse drinking water as described (Garcia-Garcia et al., Clinical cancer research: an official journal of the American Association for Cancer Research 18, 2603 (2012)).\n(§2) Once tumors reached an average volume of about 150-250 mm^3, mice were randomized into treatment arms, with n=7-11 tumors/group. GDC-0068 [40 mg/kg] or GDC-0941 [75 mg/kg] were dissolved in 0.5% methylcellulose and 0.2% Tween-80 (MCT) solution and administered once daily via oral gavage. […] Tumors were measured by digital caliper over the entire treatment period. Tumor volume was determined using the formula: (length×width^2)×(π/6). Tumor volumes are plotted as means±SEM."}, "[2]": {"tested_on": "EGFR, HER3 and downstream signaling pathways", "experiment": "Western blot of EGFR, HER3 and downstream signaling in cells", "assay_type": "cell-based", "description": "HCC70 and MDA-MB-468 TNBC cell lines, characterized by elevated levels of EGFR and loss of PTEN expression, were treated with GDC-0068, GDC-0941, MEHD7945A, and the combinations of these inhibitors.\nCells were washed with ice-cold phosphate buffered saline (PBS) and scraped into ice-cold RIPA lysis buffer (Cell Signaling) supplemented with phosphatase inhibitor cocktails (Complete Mini, and PhosphoStop (Roche)). Lysates were cleared by centrifugation at 13,000 rpm for 10 minutes at 4° C., supernatants removed and assayed for protein concentration using the Pierce BCA Protein Assay Kit (Thermo Scientific). Thirty-five micrograms of total lysate was resolved on NuPAGE 4-12% Bis-Tris gels (Life Technologies) and electrophoretically transferred to Immobilon transfer membranes (Millipore). Membranes were blocked for 1 hour in 5% nonfat dry milk in TBS-Tween and then hybridized using the following primary antibodies in 5% bovine serum albumin (BSA) TBS-Tween: phospho-Akt (Ser473), phospho-Akt (Thr308), Akt, phospho-S6 (Ser(240/4), phospho-S6 (Ser235/6), S6, phospho-PRAS40 (Thr246), PRAS40, phospho-Erk (Thr202/Tyr204), Erk, phospho-EGFR (Tyr1068), EGFR, phospho-HER3 (Tyr1289), HER3 (1:500-1:1000, Cell Signaling). Beta-actin was used as a loading control (1:5000, Sigma), also in 5% BSA TBS-Tween. Mouse and rabbit horseradish peroxidase (HRP)-conjugated secondary antibodies (1:50,000, Amersham Biosciences) were diluted in 2% nonfat dry milk in TBS-Tween. Protein—antibody complexes were detected by chemiluminescence with SuperSignal West FemtoChemiluminescent Substrate (Thermo Scientific) and images were captured with a G-BOX camera system."}, "[3]": {"tested_on": "HCC70 and MDA-MB-468 cells", "experiment": "Five days proliferation analysis (Crystal Violet / CellTiter-Glo)", "assay_type": "cell-based", "details": "5 days; MEHD7945A 10 nM, GDC-0068 and GDC-0941 1 uM", "description": "Whether the combination of MEHD7945A with GDC-0068 or GDC-0941 would result in enhanced antiproliferative activity was tested in both HCC70 and MDA-MB-468 cells.\n(§3) For proliferation, 5×10^5 cells were seeded in 96-well plates and treated with the indicated concentrations of GDC-0068, GDC-0941, and/or MEHD7945A. After 5 days, cells were fixed and stained with Crystal Violet. Cell proliferation was also analyzed with CellTiter-Glo Luminescent Cell Viability Assay (Promega) as described by the manufacturer. For heregulin (HRG, Peprotech) and epidermal growth factor (EGF, Peprotech)-induced proliferation, 5×10^5 cells were treated with GDC-0068, GDC-0941, and/or MEHD7945A in the presence of 4 ng/ml of ligands for 5 days and then stained with Crystal Violet."}, "EGFR and HER3": {"tested_on": "EGFR and HER3", "experiment": "CEER analysis of active and total EGFR and HER3 in xenograft tumors", "assay_type": "in vivo, mice", "description": "The levels of EGFR and HER3 expression/activation in HCC70 tumors collected at the end of the experiments (day 39) was investigated. […] Frozen tissue was analyzed by Cooperative, Enhanced, Enzyme Immunoreactive (CEER), a platform that utilizes reverse-phase detection of nanogram quantities of protein.\nThe levels of pathway protein expression and their activation in xenografts were determined by CEER. (Kim et al., ASCO Annual Meeting abstract P2-06-13, (2010)) CEER utilizes the formation of unique immuno-complexes between capture antibodies printed on a nitrocellulose microarray surface, the target molecule in cell lysate reacted with the slide, and two independent detector-antibodies. One of the detector-antibody is conjugated to glucose oxidase, and the other is conjugated to horseradish peroxidase. Target detection (expressed as computational unit, CU) requires the presence of both detector-antibodies and the enzyme channeling event between glucose oxidase and horseradish peroxidase will not occur unless both antibodies are in close proximity."}, "[4]": {"tested_on": "MDA-MB-468, HCC70 and patient-derived xenograft", "experiment": "In vivo activity in three different models of TNBC", "set-up": "species or system mice", "description": "Several TNBC cell lines were treated with MEHD7945A, a dual-action antibody that targets both EGFR and HER3, AKT inhibitor GDC-0068, and pan-PI3K inhibitor GDC -0941. Cell viability was measured by CellTiter-Glo and Crystal Violet. Both cell line- and patient -derived xenograft models of TNBC were treated with MEHD7945A, GDC-0068, GDC-0941, or the combination of MEHD7945A with either GDC-0068 or GDC-0941. Tumor size and histology were examined. Protein expression was measured by Western blot, Mass Spectometry, CEER and immunohistochemistry.\nTo test the activity of these compounds in vivo, three different models of TNBC were used: two cell line (MDA-MB-468 and HCC70)-based and a patient-derived xenograft.\nAll mouse studies were conducted through institutional Animal Care and Use Committee (IACUC) approved animal protocols in accordance with institutional guidelines. Six-week-old female athymic nude mice were purchased from Charles River Laboratories and housed in air-filtered laminar flow cabinets with a 12-hour light cycle and food and water ad libitum.\nas §1\n(§4) For patient-derived xenograft (PDX) studies, tumors were subcutaneously implanted in 6-week old female athymic nude mice. Upon xenograft growth, tumor tissue was reimplanted into recipient mice, which were randomized upon implant growth. For the collection of circulating tumor cells (CTCs), tumors were implanted into the mammary pad of athymic nude mice.\nas §2"}, "[5]": {"tested_on": "patient-derived xenografts (PDX) of TNBC", "experiment": "Patient-derived xenograft tumor growth", "assay_type": "in vivo, mice", "details": "MEHD7945A 10 mg/Kg twice weekly, GDC-0941 75 mg/Kg daily, GDC-0068 40 mg/kg daily", "description": "The activity of the same treatments in patient-derived xenografts (PDX) of TNBC was then tested.\nas §4, §2"}, "HCC70 cells": {"tested_on": "HCC70 cells", "experiment": "Heregulin- and EGF-induced proliferation", "assay_type": "cell-based", "description": "as §3, with “MEH[…].” for “MEHD7945A.”, “MEH[…]” for “MEHD7945A”"}, "[6]": {"details": "pre-treatment EGFR histoscore more than 70"}, "[7]": {"details": "pre-treatment EGFR histoscore ≦70"}, "[8]": {"details": "cells stimulated with either EGF or Heregulin"}}, "data": [{"substance": "panitumumab: anti-EGFR antibody, epidermal growth factor receptor antagonist", "values": [{"measurement": "residual disease at the time of surgery, rate", "setting": "TNBC patients; 40 patients", "result": 52.5, "unit": "%"}, {"measurement": "pathological complete response (pCR) rate", "setting": "TNBC patients; 40 patients, panitumumab with 4 standard cytotoxic agents, 24 weeks", "result": 47.5, "unit": "%"}, {"measurement": "increase in pCR compared to TNBC patients treated only with cytotoxics-based neoadjuvant chemotherapy", "setting": "TNBC patients; comparison with Liedtke et al. 2008", "result": "two-fold increase"}, {"measurement": "patients with residual disease at the time of surgery", "setting": "TNBC patients; of 40 patients", "result": 21}, {"measurement": "patients achieving pathological complete response (pCR)", "setting": "TNBC patients; of 40 patients, panitumumab with 4 standard cytotoxic agents, 24 weeks", "result": 19}, {"measurement": "non-pCR patients with higher HER3 expression in residual lesions versus pre-treatment (IHC)", "setting": "TNBC patients; p equals 0.010", "result": "7 out of 13"}, {"measurement": "non-pCR patients with decreased EGFR levels in residual tumors versus baseline (IHC)", "setting": "TNBC patients; p equals 0.07", "result": "nine out of 21"}, {"measurement": "pCR rate", "setting": "TNBC patients; [6]", "result": 58, "unit": "%"}, {"measurement": "patients with pCR", "setting": "TNBC patients; [6]", "result": "15 out of 26"}, {"measurement": "complete tumor regression rate", "setting": "TNBC patients; [7]", "result": 28, "unit": "%"}, {"measurement": "patients with complete tumor regression", "setting": "TNBC patients; [7]", "result": "4 out of 14"}]}, {"substance": "MEHD7945A: dual-action antibody with two identical antigen binding domains, each of which specifically binds to both HER3 and EGFR", "values": [{"measurement": "tumor growth inhibition", "setting": "[1]", "result": "responded only modestly"}, {"measurement": "inhibition of the PI3K and ERK downstream pathways", "setting": "[2]; addition of MEHD7945A 10 nM to GDC-0068 or GDC-0941, both cell lines", "result": "enhanced the inhibition of the PI3K and ERK downstream pathways"}, {"measurement": "induction of EGFR and HER3 phosphorylation by GDC-0068 or GDC-0941", "setting": "[2]; addition of MEHD7945A 10 nM, both cell lines, 24 hours", "result": "prevented the induction of EGFR and HER3 phosphorylation"}, {"measurement": "HER3/EGFR receptor phosphorylation", "setting": "[2]; [8]", "result": "prevented HER3/EGFR receptor phosphorylation"}, {"measurement": "inhibition of cell proliferation/viability", "setting": "[3]", "result": "varying sensitivity"}, {"measurement": "EGFR phosphorylation (CEER)", "setting": "EGFR and HER3; HCC70 xenografts", "result": "blocked EGFR phosphorylation"}, {"measurement": "HER3 activation (CEER)", "setting": "EGFR and HER3; HCC70 xenografts", "result": "decreased HER3 activation"}, {"measurement": "active and total levels of HER3 and EGFR (CEER)", "setting": "EGFR and HER3; TNBC PDX, tumors harvested 2 h after the last drug administration", "result": "prevented receptor phosphorylation"}, {"measurement": "EGFR and HER3 phosphorylation consequent to PI3K inhibition in treated tumors", "setting": "[4]; analysis of treated tumors", "result": "effectively prevented EGFR and HER3 phosphorylation"}, {"measurement": "tumor growth", "setting": "[4]; three TNBC models, MEHD7945A 10 mg/kg i.p. twice weekly, GDC-0068 40 mg/kg, GDC-0941 75 mg/kg oral once daily", "result": "variable delay in tumor growth"}, {"measurement": "tumor growth", "setting": "[5]", "result": "delayed tumor growth"}, {"measurement": "effect on antiproliferative activity mediated by PI3K/Akt inhibition", "setting": "HCC70 cells; HCC70 cells stimulated with EGF, antibodies 10 nM, GDC-0068 and GDC-0941 1 uM, 5 days", "result": "enhanced the antiproliferative activity mediated by PI3K/Akt inhibition"}, {"measurement": "cooperation with the antiproliferative activity of GDC-0068 and GDC-0941", "setting": "HCC70 cells; HCC70 cells stimulated with heregulin (HRG), antibodies 10 nM, 5 days", "result": "superior to cetuximab"}, {"measurement": "effect on antiproliferative activity of the PI3K inhibitors", "setting": "HCC70 cells; [8]", "result": "improved the antiproliferative activity of the PI3K inhibitors"}]}]}
